This is an account of results in patent US9182397B2, “Immunoassay for detecting antibiotics” (DSM IP ASSETS B.V., priority 2011, dated 2015).

The test system of this experiment is Penicillin binding protein purified from Bacillus stearothermophilus. Briefly: Sensitivity of the test device for different antibiotics (Example 23). Also noted: key: 0: no intensity; 1: low intensity; 2: medium intensity; 3: high intensity. How it is done:
A nitrocellulose HF90 membrane (Millipore; length 25 mm) was used as a detection region. The membrane was glued to a polystyrene laminated card (thickness 0.254 mm) 8 mm from the proximal end of the card. Next, the detection zone and control zone were applied onto the nitrocellulose membrane. The detection zone was applied by dispensing 1 mg/ml of a 7ACA-spacer-BSA conjugate in 20 mM KPO4-buffer (pH 7.5) with a Biodot Dispense workstation XYZ 3050 with frontline at 0.2 μl/cm. The control zone was applied by dispensing 0.15 mg/ml of an anti-IgY antibody in 20 mM KPO4-buffer (pH 7.5) comprising 0.675 mg/ml BSA, 5% w/v saccharose and 20 mM NaCl with a Biodot Dispense workstation XYZ 3050 with frontline at 0.8 μl/cm. After drying of the zones, the nitrocellulose membrane was blocked by spraying a solution comprising 10 mM Tris buffer (pH 8) comprising 2% w/v BSA and 0.05% w/v Tween-20 using a Biodot Dispense workstation XYZ 3050 with airjet 3×. The solution was sprayed onto the membrane at a distance of 2 mm below the detection zone. Thereafter, the sample receiving region (VF2 membrane from Millipore; length 1 cm) was glued at the proximal end of the card overlapping 2 mm with the nitrocellulose membrane. The absorbing region (10038 membrane from Millipore; length 20 mm) was glued at the distal end of the card with an overlap of 2 mm on the nitrocellulose membrane. The obtained cards were dried at 37° C. in a dry atmosphere (0% relative humidity). The card was cut in strips of 5.2 mm width and kept at a dry atmosphere (0% relative humidity).
Streptavidin-coated gold particles were synthesized by reacting colloidal gold (diameter 40 nm; 1 OD/ml) with 10 μg/ml streptavidin. Next, the obtained solution was concentrated by tangential flow filtration, washed and stored in a Tris buffer (pH 8) including NaCN. Penicillin binding protein purified from Bacillus stearothermophilus was biotinylated (1:4) with D-biotinyl-epsilon-aminocaproic acid-N-hydroxysuccinimide ester. Next, the penicillin binding protein-gold conjugate was synthesized by reacting 1.5 μg biotinylated penicillin binding protein with 1 OD streptavidin-coated gold particles for 1 hour, followed by centrifugation at 10,000×g for 5 minutes and resuspension of the obtained pellet in 45 mM bicarbonate buffer comprising 0.1% w/v Triton X-100 (pH 9.6).
Thereafter, 140-200 mOD of the penicillin binding protein-gold conjugate and 5-20 mOD of the IgY-gold conjugate was solubilized in 100 μl buffer (80 mM Tris buffer comprising 0.01% w/v Triton-X-100, 0.4% w/v BSA, 5% v/v glycerin and 2% w/v saccharose (pH 8.5)) and 0.75 μl of the solution was dispensed per tube and dried for 12 hours at 40° C. The obtained tubes were sealed.
150 μl of spiked milk was added per tube containing the dried conjugates. The concentration of penicillin G in the added milk varied from 0 to 4 ng/g (tube 1: 0 ng/g; […]; tube 2: 2 ng/g; tube 3: 3 ng/g; and tube 4: 4 ng/g). The obtained liquid composition was incubated for 2 minutes at 64° C. in an incubator. A test device was put into the tube and incubated for 3 minutes at 64° C. in the incubator. The result was read by eye.
The test was done essentially as described in Example 3, with the proviso that different antibiotics at different concentrations were tested.

Turning to `CC1=C(C(=O)O)N2C(=O)[C@@H](NC(=O)[C@H](N)c3ccccc3)[C@H]2SC1` [Cefalexin], the “Intensity of detection zone” value is reported as 2 (Cefalexin 34.0 ng/g in milk); 1 (Cefalexin 43.0 ng/g in milk); 0 (Cefalexin 52.0 ng/g in milk); 0 (Cefalexin 61.0 ng/g in milk); 0 (Cefalexin 70.0 ng/g in milk).
With `CO/N=C(\C(=O)N[C@@H]1C(=O)N2C(C(=O)O)=C(CSC(=O)c3ccco3)CS[C@H]12)c1csc(N)n1` [Ceftiofur], the “Intensity of detection zone” value is, setting by setting: (Ceftiofur 4.0 ng/g in milk) 2; (Ceftiofur 5.1 ng/g in milk) 1; (Ceftiofur 6.2 ng/g in milk) 0; (Ceftiofur 7.3 ng/g in milk) 0; (Ceftiofur 8.4 ng/g in milk) 0.
Turning to `NC(=O)c1cc[n+](CC2=C(C(=O)[O-])N3C(=O)[C@@H](NC(=O)Cc4cccs4)[C@H]3SC2)cc1` [Cefalonium], the “Intensity of detection zone” value (Cefalonium 3.2 ng/g in milk) stood at 2; the “Intensity of detection zone” value (Cefalonium 4.0 ng/g in milk) stood at 1; the “Intensity of detection zone” value (Cefalonium 4.8 ng/g in milk) is reported as 0; the “Intensity of detection zone” value (Cefalonium 5.6 ng/g in milk) turned out to be 0; the “Intensity of detection zone” value (Cefalonium 6.4 ng/g in milk) stood at 0.
For `CO/N=C(\C(=O)N[C@@H]1C(=O)N2C(C(=O)[O-])=C(C[n+]3cccc4c3CCCC4)CS[C@H]12)c1csc(N)n1` [Cefquinome], the “Intensity of detection zone” value runs as follows: (Cefquinome 12.5 ng/g in milk) 2; (Cefquinome 15.8 ng/g in milk) 1; (Cefquinome 19.1 ng/g in milk) 0; (Cefquinome 22.4 ng/g in milk) 0; (Cefquinome 25.7 ng/g in milk) 0.
For `CC1(C)S[C@@H]2[C@H](NC(=O)[C@H](N)c3ccc(O)cc3)C(=O)N2[C@H]1C(=O)O` [Amoxicillin], the “Intensity of detection zone” value runs as follows: (Amoxicillin 3.3 ng/g in milk) 2; (Amoxicillin 4.3 ng/g in milk) 1; (Amoxicillin 5.3 ng/g in milk) 1; (Amoxicillin 6.3 ng/g in milk) 0; (Amoxicillin 7.3 ng/g in milk) 0.
As for `Cc1onc(-c2c(Cl)cccc2Cl)c1C(=O)N[C@@H]1C(=O)N2[C@@H]1SC(C)(C)[C@@H]2C(=O)O` [Dicloxacillin], the “Intensity of detection zone” value is, setting by setting: (Dicloxacillin 15.0 ng/g in milk) 3; (Dicloxacillin 20.0 ng/g in milk) 2; (Dicloxacillin 25.0 ng/g in milk) 2; (Dicloxacillin 30.0 ng/g in milk) 1; (Dicloxacillin 35.0 ng/g in milk) 0.
`CC1(C)S[C@@H]2[C@H](NC(=O)[C@H](N)c3ccccc3)C(=O)N2[C@H]1C(=O)O` [Ampicillin]: the “Intensity of detection zone” value is recorded as 2 (Ampicillin 5.3 ng/g in milk); 1 (Ampicillin 6.9 ng/g in milk); 0 (Ampicillin 8.5 ng/g in milk); 0 (Ampicillin 10.1 ng/g in milk); 0 (Ampicillin 11.7 ng/g in milk).
`CCOc1ccc2ccccc2c1C(=O)N[C@@H]1C(=O)N2[C@@H]1SC(C)(C)[C@@H]2C(=O)O` [Nafcillin]: the “Intensity of detection zone” value worked out at 3 (Nafcillin 40.0 ng/g in milk); 2 (Nafcillin 50.5 ng/g in milk); 1 (Nafcillin 61.0 ng/g in milk); 0 (Nafcillin 71.5 ng/g in milk); 0 (Nafcillin 82.0 ng/g in milk).
As for `Cc1onc(-c2ccccc2Cl)c1C(=O)N[C@@H]1C(=O)N2[C@@H]1SC(C)(C)[C@@H]2C(=O)O` [Cloxacillin], the “Intensity of detection zone” value is, setting by setting: (Cloxacillin 32.5 ng/g in milk) 1; (Cloxacillin 43.2 ng/g in milk) 0; (Cloxacillin 53.9 ng/g in milk) 0; (Cloxacillin 64.6 ng/g in milk) 0; (Cloxacillin 75.3 ng/g in milk) 0.
As for `Cc1onc(-c2ccccc2)c1C(=O)N[C@@H]1C(=O)N2[C@@H]1SC(C)(C)[C@@H]2C(=O)O` [Oxacillin], the “Intensity of detection zone” value is reported as 2 (Oxacillin 27.0 ng/g in milk); 2 (Oxacillin 34.8 ng/g in milk); 1 (Oxacillin 42.6 ng/g in milk); 0 (Oxacillin 50.4 ng/g in milk); 0 (Oxacillin 58.2 ng/g in milk).
Take `Cc1nnc(SCC2=C(C(=O)O)N3C(=O)[C@@H](NC(=O)Cn4cnnn4)[C@H]3SC2)s1` [Cefazolin]: the “Intensity of detection zone” value is 2 (Cefazolin 10.0 ng/g in milk); 1 (Cefazolin 12.5 ng/g in milk); 0 (Cefazolin 15.0 ng/g in milk); 0 (Cefazolin 17.5 ng/g in milk); 0 (Cefazolin 20.0 ng/g in milk).
On to `CCN1CCN(C(=O)N[C@@H](C(=O)N[C@@H]2C(=O)N3C(C(=O)O)=C(CSc4nnnn4C)CS[C@H]23)c2ccc(O)cc2)C(=O)C1=O` [Cefoperazone], for which the “Intensity of detection zone” value is, setting by setting: (Cefoperazone 4.0 ng/g in milk) 2; (Cefoperazone 4.9 ng/g in milk) 2; (Cefoperazone 5.8 ng/g in milk) 1; (Cefoperazone 6.7 ng/g in milk) 1; (Cefoperazone 7.6 ng/g in milk) 0.
